Measurements reported in US5538731A, “Cosmetic” (Mikimoto Pharmaceutical Co., Ltd., priority 1992, dated 1996).

Assay: Antioxydation test (linoleic acid, thiocyanate method)
Details: 5 mg specimen
Description: In a 50 ml test tube with a screw cap, the following test solution was prepared. […]
This test solution was allowed to stand in a thermostatic bath at 50° C., while light was shut out. […]
12.125 ml of 75% ethanol and 0.125 ml of 30% ammonium thiocyanate were added to 0.125 ml of the test solution, and the solution was stirred and then allowed to stand for 3 minutes. Afterward, 0.125 ml of a 3.5% aqueous HCl solution including 0.02 N ferrous chloride was added thereto, and the solution was stirred and then allowed to stand for 3 minutes. Next, absorbance was measured at a wavelength of 500 nm. A cell length was 10 mm, and a control was prepared by replacing the test solution with water.

In the case of Vitamin E, the “Absorbance at 500 nm After 3 days” value (linoleic acid test solution at 50° C., light shut out, water 0.050) is reported as 0.026, the “Absorbance at 500 nm After 5 days” value (linoleic acid test solution at 50° C., light shut out, water 0.103) is reported as 0.047 and the “Absorbance at 500 nm After 7 days” value (linoleic acid test solution at 50° C., light shut out, water 0.262) is reported as 0.070. For the same substance, the “Absorbance at 500 nm After 0 day” value (linoleic acid test solution, before placing at 50° C., water 0.014) was 0.015.
